Results taken from publication PMC3961306, “Comparison of the Cancer Gene Targeting and Biochemical Selectivities of All Targeted Kinase Inhibitors Approved for Clinical Use” (PLoS ONE, 2014).

Experiments:
Experiment in all cases: Kinase profiling in a biochemical assay panel (mobility shift assays and ELISA), %-inhibition at 1 μM; selectivity entropy
[1] = target: T1, panel of more than 300 wild-type and mutant kinases (313 kinase panel) (Homo sapiens, UniProt Q96BR1)
T1 sequence (Q96BR1 1-496): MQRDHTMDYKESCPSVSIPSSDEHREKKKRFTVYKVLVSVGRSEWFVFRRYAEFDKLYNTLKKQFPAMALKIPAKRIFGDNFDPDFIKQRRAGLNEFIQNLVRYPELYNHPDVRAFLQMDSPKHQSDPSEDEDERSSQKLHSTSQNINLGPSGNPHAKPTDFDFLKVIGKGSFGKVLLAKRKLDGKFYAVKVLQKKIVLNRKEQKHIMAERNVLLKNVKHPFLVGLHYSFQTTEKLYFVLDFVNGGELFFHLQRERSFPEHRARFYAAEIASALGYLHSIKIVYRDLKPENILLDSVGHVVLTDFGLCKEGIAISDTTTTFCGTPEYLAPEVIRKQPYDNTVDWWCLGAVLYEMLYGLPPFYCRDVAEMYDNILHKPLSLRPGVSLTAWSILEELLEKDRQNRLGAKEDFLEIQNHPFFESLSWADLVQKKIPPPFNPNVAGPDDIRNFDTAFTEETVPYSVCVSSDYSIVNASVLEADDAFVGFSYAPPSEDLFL

[2] = target: panel of more than 300 wild-type and mutant kinases (313 kinase panel) (Homo sapiens, UniProt O14578)
Sequence of panel of more than 300 wild-type and mutant kinases (313 kinase panel) (Homo sapiens, UniProt O14578) (O14578 whole entry, change not shown): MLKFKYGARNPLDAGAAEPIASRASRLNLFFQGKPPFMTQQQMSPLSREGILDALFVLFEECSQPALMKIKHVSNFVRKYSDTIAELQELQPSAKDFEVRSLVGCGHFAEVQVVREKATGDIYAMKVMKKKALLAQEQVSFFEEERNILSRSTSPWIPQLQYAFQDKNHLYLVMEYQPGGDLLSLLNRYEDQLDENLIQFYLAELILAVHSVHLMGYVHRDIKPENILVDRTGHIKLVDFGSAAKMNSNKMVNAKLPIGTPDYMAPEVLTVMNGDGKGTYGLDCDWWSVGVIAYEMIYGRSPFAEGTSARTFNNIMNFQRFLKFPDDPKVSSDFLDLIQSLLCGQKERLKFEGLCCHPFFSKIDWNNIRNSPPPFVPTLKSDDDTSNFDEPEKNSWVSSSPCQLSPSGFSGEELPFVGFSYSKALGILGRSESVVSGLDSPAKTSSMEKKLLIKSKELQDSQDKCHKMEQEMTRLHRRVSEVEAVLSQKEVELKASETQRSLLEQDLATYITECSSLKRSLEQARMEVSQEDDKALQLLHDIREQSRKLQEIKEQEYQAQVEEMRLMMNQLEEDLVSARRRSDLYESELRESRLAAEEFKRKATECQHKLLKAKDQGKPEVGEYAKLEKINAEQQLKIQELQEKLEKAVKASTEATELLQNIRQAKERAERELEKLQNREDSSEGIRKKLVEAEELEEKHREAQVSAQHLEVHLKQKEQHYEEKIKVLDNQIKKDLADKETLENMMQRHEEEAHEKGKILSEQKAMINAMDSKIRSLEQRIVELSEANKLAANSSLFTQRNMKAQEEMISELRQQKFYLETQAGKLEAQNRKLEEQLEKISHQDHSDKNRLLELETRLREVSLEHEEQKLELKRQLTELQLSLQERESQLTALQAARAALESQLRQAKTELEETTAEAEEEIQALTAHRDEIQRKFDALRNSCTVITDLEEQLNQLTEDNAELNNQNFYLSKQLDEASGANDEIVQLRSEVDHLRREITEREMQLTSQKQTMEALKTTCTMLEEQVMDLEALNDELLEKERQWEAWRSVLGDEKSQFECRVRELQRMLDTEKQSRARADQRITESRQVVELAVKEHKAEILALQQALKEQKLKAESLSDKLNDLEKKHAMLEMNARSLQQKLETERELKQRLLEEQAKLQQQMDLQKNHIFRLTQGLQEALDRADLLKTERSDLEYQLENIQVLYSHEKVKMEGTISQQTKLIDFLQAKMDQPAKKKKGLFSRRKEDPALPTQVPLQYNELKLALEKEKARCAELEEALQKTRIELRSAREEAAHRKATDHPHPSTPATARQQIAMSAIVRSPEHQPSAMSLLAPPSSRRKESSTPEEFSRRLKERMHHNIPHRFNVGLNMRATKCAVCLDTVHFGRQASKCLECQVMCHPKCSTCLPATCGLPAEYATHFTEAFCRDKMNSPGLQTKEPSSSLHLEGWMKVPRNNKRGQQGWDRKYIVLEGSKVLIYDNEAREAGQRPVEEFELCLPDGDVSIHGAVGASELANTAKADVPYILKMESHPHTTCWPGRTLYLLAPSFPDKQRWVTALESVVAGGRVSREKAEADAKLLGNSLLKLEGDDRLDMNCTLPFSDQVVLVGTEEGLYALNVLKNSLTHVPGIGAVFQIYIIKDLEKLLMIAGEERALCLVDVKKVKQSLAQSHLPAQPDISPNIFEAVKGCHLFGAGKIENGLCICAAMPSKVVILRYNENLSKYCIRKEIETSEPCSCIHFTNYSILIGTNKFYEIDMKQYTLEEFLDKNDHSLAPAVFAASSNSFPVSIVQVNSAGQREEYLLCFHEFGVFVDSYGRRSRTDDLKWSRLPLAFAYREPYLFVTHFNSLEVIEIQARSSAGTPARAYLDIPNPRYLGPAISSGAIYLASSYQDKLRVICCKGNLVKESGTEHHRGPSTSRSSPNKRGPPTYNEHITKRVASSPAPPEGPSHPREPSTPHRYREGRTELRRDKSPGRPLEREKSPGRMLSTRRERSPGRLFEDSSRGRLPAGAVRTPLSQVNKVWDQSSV

[3] = target: panel of more than 300 wild-type and mutant kinases (313 kinase panel) (Homo sapiens, UniProt Q9HCP0)
[4] = target: panel of more than 300 wild-type and mutant kinases (313 kinase panel) (Homo sapiens, UniProt P22455)
[5] = target: T2, panel of more than 300 wild-type and mutant kinases (313 kinase panel) (Homo sapiens, UniProt P54753)
T2 sequence (P54753 34-998): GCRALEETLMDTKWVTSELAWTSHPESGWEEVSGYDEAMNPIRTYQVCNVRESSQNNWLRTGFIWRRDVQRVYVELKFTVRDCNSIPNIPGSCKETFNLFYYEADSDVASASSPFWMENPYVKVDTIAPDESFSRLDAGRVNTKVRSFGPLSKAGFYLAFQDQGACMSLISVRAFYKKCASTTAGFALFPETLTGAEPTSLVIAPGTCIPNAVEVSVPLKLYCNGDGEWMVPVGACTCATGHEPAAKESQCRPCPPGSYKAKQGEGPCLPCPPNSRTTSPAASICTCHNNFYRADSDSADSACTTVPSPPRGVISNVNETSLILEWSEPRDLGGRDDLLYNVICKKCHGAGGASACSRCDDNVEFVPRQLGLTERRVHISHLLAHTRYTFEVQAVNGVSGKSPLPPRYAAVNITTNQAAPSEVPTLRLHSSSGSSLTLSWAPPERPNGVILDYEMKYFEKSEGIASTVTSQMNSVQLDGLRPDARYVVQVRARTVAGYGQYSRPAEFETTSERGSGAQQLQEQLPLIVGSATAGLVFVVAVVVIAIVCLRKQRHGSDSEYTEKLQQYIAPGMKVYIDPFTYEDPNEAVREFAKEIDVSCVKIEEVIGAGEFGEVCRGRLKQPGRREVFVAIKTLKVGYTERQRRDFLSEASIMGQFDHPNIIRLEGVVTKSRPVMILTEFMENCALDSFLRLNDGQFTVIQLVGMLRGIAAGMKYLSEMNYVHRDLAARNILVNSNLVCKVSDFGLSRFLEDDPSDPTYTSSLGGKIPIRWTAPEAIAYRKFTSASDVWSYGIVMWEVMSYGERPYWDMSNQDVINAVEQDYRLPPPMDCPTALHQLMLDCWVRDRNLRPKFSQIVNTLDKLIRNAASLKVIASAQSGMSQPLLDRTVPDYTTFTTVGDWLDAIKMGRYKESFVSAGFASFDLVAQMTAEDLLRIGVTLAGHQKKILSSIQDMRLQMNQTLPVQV

[6] = target: panel of more than 300 wild-type and mutant kinases (313 kinase panel) (Homo sapiens, UniProt P41279)
Sequence of panel of more than 300 wild-type and mutant kinases (313 kinase panel) (Homo sapiens, UniProt P41279) (P41279 whole entry, change not shown): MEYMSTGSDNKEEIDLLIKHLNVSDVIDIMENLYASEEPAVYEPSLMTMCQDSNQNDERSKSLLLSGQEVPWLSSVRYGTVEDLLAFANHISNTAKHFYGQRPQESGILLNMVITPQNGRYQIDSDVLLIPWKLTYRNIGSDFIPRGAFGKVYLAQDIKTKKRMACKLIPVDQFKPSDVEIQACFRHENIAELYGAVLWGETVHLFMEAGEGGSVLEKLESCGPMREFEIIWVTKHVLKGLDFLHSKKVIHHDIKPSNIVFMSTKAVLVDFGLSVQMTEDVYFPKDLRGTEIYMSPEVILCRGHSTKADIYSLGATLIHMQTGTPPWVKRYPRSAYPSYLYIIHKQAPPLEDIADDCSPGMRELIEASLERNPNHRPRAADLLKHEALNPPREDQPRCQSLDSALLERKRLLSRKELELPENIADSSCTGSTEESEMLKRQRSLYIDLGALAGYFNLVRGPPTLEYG

[7] = target: panel of more than 300 wild-type and mutant kinases (313 kinase panel) (Homo sapiens, UniProt Q9NYA1)

SMILES | %-inhibition of SGK3 ([1]; kinase SGK3, 1 μM) [%] | %-inhibition of CRIK ([2]; kinase CRIK, compound at 1 μM) [%] | %-inhibition, CK1γ1 ([3]; kinase CK1γ1, 1 μM compound) [%] | %-inhibition of FGFR4 ([4]; kinase FGFR4, compound at 1 μM) [%] | %-inhibition of EPHB3 ([5]; kinase EPHB3, compound at 1 μM) [%] | %-inhibition of COT ([6]; kinase COT, compound at 1 μM) [%] | %-inhibition of SPHK1 ([7]; kinase SPHK1, 1 μM) [%] | %-inhibition of SGK3 ([1]; 1 µM) [%] | %-inhibition of CRIK ([2]; 1 µM) [%] | %-inhibition, CK1γ1 ([3]; 1 µM) [%] | %-inhibition of FGFR4 ([4]; 1 µM) [%] | %-inhibition of EPHB3 ([5]; 1 µM) [%] | %-inhibition of COT ([6]; 1 µM) [%] | %-inhibition of SPHK1 ([7]; 1 µM) [%]
C[C@@H](Oc1cc(-c2cnn(C3CCNCC3)c2)cnc1N)c1c(Cl)ccc(F)c1Cl [crizotinib] | -3 | -12 | -3.52 | 0 | 5 | 11 | -14 | – | – | – | – | – | – | –
CCCS(=O)(=O)Nc1ccc(F)c(C(=O)c2c[nH]c3ncc(-c4ccc(Cl)cc4)cc23)c1F [vemurafenib] | -2.38 | -6 | -2 | 5 | 2 | 4.34 | -11 | – | – | – | – | – | – | –
COc1cc2c(Nc3ccc(Br)cc3F)ncnc2cc1OCC1CCN(C)CC1 [vandetanib] | -8 | -2.19 | -4.74 | 31 | 8 | -2.53 | -13 | – | – | – | – | – | – | –
C#Cc1cccc(Nc2ncnc3cc(OCCOC)c(OCCOC)cc23)c1 [erlotinib] | – | – | – | – | – | – | – | 8 | 21 | 2.22 | 6 | 5 | -0.486 | -14
CNC(=O)c1cc(Oc2ccc(NC(=O)Nc3ccc(Cl)c(C(F)(F)F)c3)c(F)c2)ccn1 [regorafenib] | -8 | -18 | -8 | 33 | 22 | -4 | -14 | – | – | – | – | – | – | –
Cc1ccc(C(=O)Nc2ccc(CN3CCN(C)CC3)c(C(F)(F)F)c2)cc1C#Cc1cnc2cccnn12 [ponatinib] | -1.1 | 61 | -4 | 98 | 101 | -2.42 | -20 | – | – | – | – | – | – | –
CO[C@H]1C[C@@H]2CC[C@@H](C)[C@@](O)(O2)C(=O)C(=O)N2CCCC[C@H]2C(=O)O[C@H]([C@H](C)C[C@@H]2CC[C@@H](OC(=O)C(C)(CO)CO)[C@H](OC)C2)CC(=O)[C@H](C)/C=C(\C)[C@@H](O)[C@@H](OC)C(=O)[C@H](C)C[C@H](C)/C=C/C=C/C=C/1C [temsirolimus] | -4 | -15 | -4.47 | -4.51 | -13 | 8 | -14 | – | – | – | – | – | – | –
Cc1cn(-c2cc(NC(=O)c3ccc(C)c(Nc4nccc(-c5cccnc5)n4)c3)cc(C(F)(F)F)c2)cn1 [nilotinib] | 15 | -16 | – | -7.46 | 92 | 2.3 | 11 | – | – | -1 | – | – | – | –
CS(=O)(=O)CCNCc1ccc(-c2ccc3ncnc(Nc4ccc(OCc5cccc(F)c5)c(Cl)c4)c3c2)o1 [lapatinib] | – | 7 | -8.54 | 0.821 | 5 | -0.221 | -11 | 4.58 | – | – | – | – | – | –
